Laboratory results from the supplement of paper PMC10331698.
± gives the standard deviation of the averaged measurements.

Assays:
Test in all cases: level (log10 ratio to DMSO vehicle control); higher = higher biomarker level / cell amount than vehicle control
[1] = compound: OCC(F)(F)C(F)(F)C(F)(F)C(F)(F)C(F)(F)C(F)(F)C(F)(F)C(F)(F)CO [1H,1H,10H,10H-Perfluorodecane-1,10-diol]; details: in DMSO
Method: (§1)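 BioMAP Diversity Plus panel of 12 human primary cell co-culture systems (3C, 4H, LPS, SAg, BT, BF4T, BE3C, CASM3C, HDF3CGF, KF3CT, MyoF, Mphg). Compounds were added 1 h before stimulation and left for 24 h (MyoF 48 h; BT 72 h for soluble read-outs or 6 d for IgG). Biomarkers were read by ELISA, cytotoxicity by SRB, PBMC viability and proliferation by Alamar Blue. Each well value was divided by the mean of 8 DMSO control wells on the same plate and log10 transformed; duplicate blinded samples were tested at 4 concentrations.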

[2] = compound: OCCCCC(F)(F)C(F)(F)C(F)(F)C(F)(F)F [4:4 Fluorotelomer alcohol]; details: in DMSO
Method: as §1

[3] = compound: O=C(Cl)C(F)(F)C(F)(F)C(F)(F)C(=O)Cl [Hexafluoroglutaryl chloride]; details: in DMSO
Method: as §1

[4] = compound: C=CC(=O)OCCC(F)(F)C(F)(F)C(F)(F)C(F)(F)C(F)(F)C(F)(F)C(F)(F)C(F)(F)F [8:2 Fluorotelomer acrylate]; details: in DMSO
Method: as §1

[5] = compound: OCC(F)(F)C(F)(F)C(F)(F)C(F)(F)C(F)(F)C(F)(F)C(F)(F)C(F)(F)C(F)(F)C(F)(F)C(F)(F)F [11:1 Fluorotelomer alcohol]; details: in DMSO
Method: as §1

[6] = compound: OCCCC(F)(F)C(F)(F)C(F)(F)C(F)(F)C(F)(F)C(F)(F)C(F)(F)C(F)(F)F [3-(Perfluorooctyl)propanol]; details: 6700 nM; in DMSO
Method: as §1

[7] = compound: FC(F)(I)C(F)(F)C(F)(F)C(F)(F)C(F)(F)C(F)(F)I [1,6-Diiodoperfluorohexane]; details: 6700 nM; in DMSO
Method: as §1

[8] = compound: OCCC(F)(F)C(F)(F)C(F)(F)C(F)(F)C(F)(F)C(F)(F)C(F)(F)C(F)(F)F [8:2 Fluorotelomer alcohol]; details: 6700 nM; in DMSO
Method: as §1

Row | Test System | level (log10) ([1]; 6700 nM) | level (log10) ([1]; 20000 nM) | level (log10) ([1]; 60000 nM) | level (log10) ([2]; 6700 nM) | level (log10) ([2]; 20000 nM) | level (log10) ([2]; 60000 nM) | level (log10) ([3]; 6700 nM) | level (log10) ([3]; 20000 nM) | level (log10) ([3]; 60000 nM) | level (log10) ([4]; 6700 nM) | level (log10) ([4]; 20000 nM) | level (log10) ([4]; 60000 nM) | level (log10) ([5]; 1100 nM) | level (log10) ([5]; 3300 nM) | level (log10) ([5]; 10000 nM) | level (log10) [6] | level (log10) [7] | level (log10) [8]
1 | LPS:CD62E/E-Selectin | -0.064 ± 0.04 | -0.0475 ± 0.0021 | -0.038 | -0.0015 ± 0.033 | -0.0135 ± 0.028 | -0.012 ± 0.0099 | 0.0025 ± 0.0035 | 0.003 ± 0.02 | 0.038 ± 0.031 | 0.002 ± 0.011 | 0 ± 0.011 | 0.019 ± 0.014 | 0.016 ± 0.0085 | 0.01 ± 0.0099 | 0.015 ± 0.014 | -0.148 ± 0.079 | -0.024 | 0.012 ± 0.018
2 | 3C:HLA-DR | -0.039 ± 0.02 | -0.031 ± 0.021 | -0.131 | -0.002 ± 0.042 | -0.0065 ± 0.026 | 0.006 ± 0.033 | -0.008 ± 0.023 | -0.006 ± 0.013 | -0.0085 ± 0.0035 | 0.009 ± 0.0071 | 0.0055 ± 0.013 | 0.0175 ± 0.029 | -0.019 ± 0.0042 | -0.034 ± 0.011 | -0.04 ± 0.016 | -0.03 ± 0.0028 | -0.005 | -0.0245 ± 0.018
3 | LPS:CD142/Tissue Factor | 0 ± 0.038 | 0.0125 ± 0.069 | -0.035 | 0.003 ± 0.027 | 0.031 ± 0.027 | -0.0095 ± 0.023 | 0.0275 ± 0.018 | -0.0025 ± 0.044 | -0.0185 ± 0.0035 | 0.0375 ± 0.0035 | 0.0245 ± 0.044 | 0.0085 ± 0.03 | 0.056 ± 0.0028 | 0.084 ± 0.03 | 0.0995 ± 0.00071 | -0.126 ± 0.066 | 0.019 | -0.0205 ± 0.1
4 | BT:PBMC Cytotoxicity | 0.0065 ± 0.026 | -0.012 ± 0.0085 | -0.246 | -0.0265 ± 0.0064 | -0.035 ± 0.0014 | -0.0195 ± 0.064 | -0.0035 ± 0.039 | -0.019 ± 0.04 | -0.022 ± 0.016 | 0.011 ± 0.018 | -0.0035 ± 0.035 | -0.021 ± 0.079 | -0.073 ± 0.044 | -0.09 ± 0.038 | -0.0775 ± 0.019 | 0.021 ± 0.028 | 0.035 | 0.001 ± 0.038
5 | SAg:Proliferation | -0.0135 ± 0.025 | -0.058 ± 0.013 | -0.048 | -0.026 ± 0.014 | -0.0185 ± 0.0035 | -0.005 ± 0.047 | 0.0165 ± 0.026 | 0.0255 ± 0.013 | 0.001 ± 0.013 | 0.0035 ± 0.022 | -0.0625 ± 0.0064 | -0.0055 ± 0.043 | -0.248 ± 0.083 | -0.364 ± 0.13 | -0.473 ± 0.35 | -0.005 ± 0.023 | -0.028 | -0.064 ± 0.028
6 | LPS:sPGE2 | -0.0125 ± 0.03 | 0.0375 ± 0.0078 | 0.025 | 0.0035 ± 0.0092 | -0.015 ± 0.0099 | -0.015 ± 0.055 | -0.011 ± 0.018 | -0.0375 ± 0.026 | -0.056 ± 0.03 | -0.118 ± 0.005 | -0.102 ± 0.044 | -0.069 ± 0.03 | 0.151 ± 0.075 | 0.212 ± 0.0064 | 0.211 ± 0.044 | -0.061 ± 0.061 | -0.063 | -0.11 ± 0.033
7 | BF4T:uPA | -0.014 ± 0.017 | -0.029 ± 0.0042 | -0.06 | -0.0125 ± 0.0078 | -0.015 ± 0.0028 | 0.0105 ± 0.04 | -0.02 ± 0.048 | -0.004 ± 0.028 | -0.008 ± 0.013 | -0.0405 ± 0.039 | -0.033 ± 0.025 | -0.023 ± 0.031 | 0 | -0.005 ± 0.0071 | 0.0015 ± 0.0064 | 0.006 ± 0.0085 | -0.031 | -0.047 ± 0.0057
8 | LPS:CD69 | -0.0215 ± 0.073 | -0.039 ± 0.045 | -0.111 | -0.0335 ± 0.016 | -0.0135 ± 0.015 | -0.0135 ± 0.015 | 0.0045 ± 0.021 | -0.0195 ± 0.07 | -0.005 ± 0.051 | 0.012 ± 0.054 | -0.044 ± 0.05 | -0.052 ± 0.061 | 0.006 ± 0.021 | 0.004 | -0.003 ± 0.031 | -0.011 ± 0.016 | -0.019 | -0.063 ± 0.11
9 | LPS:CXCL8/IL-8 | -0.0065 ± 0.023 | 0.006 ± 0.0042 | 0.051 | 0.0295 ± 0.005 | 0.0205 ± 0.033 | 0.027 ± 0.041 | -0.0295 ± 0.00071 | 0 ± 0.037 | -0.0035 ± 0.043 | -0.0055 ± 0.0092 | -0.036 ± 0.04 | -0.0085 ± 0.018 | -0.007 ± 0.011 | -0.013 ± 0.0014 | -0.0305 ± 0.039 | -0.132 ± 0.014 | 0.002 | -0.0375 ± 0.029
10 | 4H:CD106/VCAM-1 | -0.0445 ± 0.011 | -0.049 ± 0.03 | -0.166 | 0 ± 0.0057 | -0.01 ± 0.0028 | 0.005 ± 0.0028 | 0.0015 ± 0.0092 | -0.005 ± 0.021 | 0.001 ± 0.011 | -0.0045 ± 0.035 | -0.023 ± 0.051 | -0.0255 ± 0.026 | 0.0285 ± 0.022 | 0.0115 ± 0.057 | 0.024 ± 0.038 | 0.0065 ± 0.021 | -0.052 | -0.008 ± 0.013
11 | BT:sTNF-alpha | -0.017 ± 0.085 | -0.007 ± 0.031 | -0.762 | -0.0875 ± 0.033 | -0.046 ± 0.13 | -0.0085 ± 0.17 | 0.0505 ± 0.025 | -0.0155 ± 0.037 | 0.104 ± 0.07 | 0.128 ± 0.0057 | 0.034 ± 0.027 | 0.159 ± 0.14 | -0.057 ± 0.031 | -0.127 ± 0.0064 | -0.0825 ± 0.079 | -0.0805 ± 0.029 | -0.145 | 0.093 ± 0.034
12 | BF4T:Keratin 8/18 | 0.005 ± 0.028 | 0.027 ± 0.018 | -0.024 | 0.012 ± 0.0028 | -0.001 ± 0.0014 | 0.009 ± 0.034 | -0.0245 ± 0.053 | -0.018 ± 0.03 | -0.0345 ± 0.035 | -0.014 ± 0.0042 | -0.0045 ± 0.00071 | 0.0115 ± 0.015 | 0.0025 ± 0.026 | -0.009 ± 0.03 | -0.0075 ± 0.025 | 0.021 ± 0.051 | 0.024 | -0.008 ± 0.0028
13 | BF4T:MMP-3 | 0.0015 ± 0.021 | -0.0375 ± 0.026 | -0.105 | 0.0075 ± 0.021 | 0.017 ± 0.041 | 0.0295 ± 0.067 | -0.004 ± 0.011 | -0.0145 ± 0.0064 | 0.019 ± 0.0057 | -0.014 ± 0.0057 | -0.022 ± 0.0057 | 0.0085 ± 0.028 | 0.008 ± 0.0014 | 0.009 ± 0.0057 | 0.0435 ± 0.035 | 0.018 ± 0.03 | -0.029 | -0.001 ± 0.0014
14 | BE3C:IL-1alpha | -0.0035 ± 0.015 | -0.022 ± 0.0099 | -0.026 | 0.0255 ± 0.00071 | 0.0095 ± 0.011 | 0.0155 ± 0.021 | -0.014 ± 0.025 | -0.017 ± 0.0042 | 0.0025 ± 0.005 | -0.007 ± 0.021 | -0.015 ± 0.0042 | 0.0165 ± 0.029 | -0.011 ± 0.018 | -0.0325 ± 0.0021 | -0.029 ± 0.02 | 0.0155 ± 0.03 | -0.004 | -0.014 ± 0.0014
15 | LPS:CD106/VCAM-1 | -0.034 ± 0.028 | -0.0485 ± 0.012 | -0.052 | -0.001 ± 0.011 | 0.0045 ± 0.018 | 0.003 ± 0.02 | -0.0235 ± 0.011 | -0.0135 ± 0.012 | -0.011 ± 0.013 | -0.029 ± 0.013 | -0.05 ± 0.013 | -0.053 ± 0.0099 | -0.025 ± 0.0042 | -0.025 ± 0.02 | -0.015 ± 0.0028 | -0.158 ± 0.17 | -0.041 | -0.0785 ± 0.042
